Reference: US20080139804A1, “Photosensitive Compounds” (priority 2005, published 2008)
Several values for one entry are separate records, joined by “and”; a condition that tells them apart may be missing. Equal entries are not always repeated. Entries after “also recorded” stand apart in the source; their conditions may differ.

Columns and labels:
[1] = In vivo pharmacokinetics of zinc coproporphyrin-I in HeLa tumor-bearing nude mice (tissue fluorescence); set-up: species or system (BALB/c) nude mouse; settings: 25 mg/kg intravenous in physiological saline, back and muscle, excitation 405 nm, fluorescence 580 nm
Experimental: In the back of a (BALB/c) nude mouse, 5×10^6 HeLa cells in 0.1 ml were transplanted intradermally. When the tumor grew to 12-17 mm diameter, 25 mg/kg of zinc coproporphyrin-I in physiological saline was intravenously injected, and mice were sacrificed at each time shown in FIG. 2, and then zinc coproporphyrin-I in 3 kinds of tissues (tumor, back and muscle) was measured with excitation at 405 nm and fluorescence at 580 nm.

[2] = Photophysical characteristics: absorption spectrum; format: physicochemical
Source text: Measurement of Photophysical Characteristics of Zinc Coproporphyrin-I

[3] = Photophysical characteristics: generation of singlet oxygen (near infrared emission); format: physicochemical; settings: excitation at 563 nm, emission at 1270 nm in near infrared light
Source text: Also, the generation of singlet oxygen was confirmed with excitation at 563 nm and emission at 1270 nm in near infrared light.

DNA = DNA breakage under light irradiation; format: biochemical; settings: under the irradiation of 350 nm light
Source text: (§1) Thus, after systemic administration of these compounds systemically, cancer tissues can be selectively killed, and the cancer can be treated without side effects by irradiating light only on the cancer tissues. Therefore, these compounds can be used as photodynamic therapy agents not only for surface cancer types (for example, breast cancer, skin cancer, esophageal cancer) but also deep cancer types (for example, gastric cancer, lung cancer).

[4] = Anti-cellular activity with and without light irradiation, in vitro system using mice; format: cell-based
Source text: as §1

HeLa tumor = test: Drug efficacy of the agent for photodynamic therapy: laser irradiation of HeLa tumor in nude mouse, HE-stained sections; settings: 203 mg/kg i.v.; YAG-Dye laser 580 nm after 28 minutes, 100 J/cm^2; tumors excised 24 hours after irradiation
Experimental: To the back of a (BALB/c) nude mouse, 5×10^6 HeLa cells in 0.1 ml were intradermally transplanted. […] The wavelength was 580 nm. The light was emitted horizontally to the side of the tumor. To observe the necrosis layer, the tumors were excised out at 24 hours after the laser irradiation, fixed in 20% formaldehyde solution and embedded in paraffin. Sections were prepared, stained with HE and observed.

cancer cells = settings: photo-irradiation; cited from earlier work
[5] = patients administered therewith; cited from earlier work

## zinc coproporphyrin-I
[1]
  time until excreted out of the body: 3 to 4 days
[2]
  absorption peaks: 403 nm and 535 nm and 571 nm
[3]
  generation of singlet oxygen: confirmed
DNA
  DNA breakage: can break DNA efficiently
[4]; irradiation of light which induces DNA cleavage
  anti-cellular activity under the irradiation of light: strong anti-cellular activity
[4]; without light irradiation
  anti-cellular activity by themselves: do not demonstrate any anti-cellular activity
HeLa tumor
  cells appearing to be dead: about 10 % of the total cells
  histological observations after light irradiation of the HeLa tumor: thrombus formation in the capillary vessels and hemorrhage inside of the tissues; also recorded: anucleated cells, chromatin condensed cells and cells with ruptured vacuoles were seen

## coproporphyrin-III
Cancer cells
  toxic effect on cancer cells compared to that of hematoporphyrin: superior toxic effect

## C=CC1=C(C)C2=CC3=C(/C=C/NO)C(C)(O)C(=CC4=NC(=CC5=NC(=CC1=N2)C(C)=C5CCC(=O)N[C@@H](CC(=O)[O-])C(=O)[O-])C(CCC(=O)N[C@@H](CC(=O)[O-])C(=O)[O-])=C4C)N3.[Na+].[Na+].[Na+].[Na+] (stereo partly shown) [ATX-S10 (Na)]
[5]
  complete excretion period from the body: 7 to 8 h
